According to patent publication US20140094365A1, “SYNERGISTIC WEED CONTROL FROM APPLICATIONS OF AMINOCYCLOPYRACHLOR AND TRICLOPYR” (Dow AgroSciences LLC, priority 2012, published 2014):

Tests used:
Assay in all cases: Field trial, post-emergence foliar weed control
Assay type in all cases: in vivo
[1] = system: broomweed (Sida acuta, SIDAC)
Description: (§1) The (a) aminocyclopyrachlor or an agriculturally acceptable salt or ester thereof is mixed with or applied in combination with (b) triclopyr or an agriculturally acceptable salt or ester thereof in an amount sufficient to induce a synergistic herbicidal effect. […] As described in the Herbicide Handbook of the Weed Science Society of America, Ninth Edition, 2007, p. 429, “‘synergism’ [is] an interaction of two or more factors such that the effect when combined is greater than the predicted effect based on the response to each factor applied separately.” Synergistic in the herbicide context can mean that the use of (a) and (b) as defined above results in an increased weed control effect compared to the weed control effects that are possible with the use of (a) or (b) alone. In some embodiments, the damage or injury to the undesired vegetation caused by the compositions and methods disclosed herein is evaluated using a scale from 0% to 100%, when compared with the untreated control vegetation, wherein 0% indicates no damage to the undesired vegetation and 100% indicates complete destruction of the undesired vegetation. […] 22 (1967)
(§2) Field trials were conducted with applications made to established grassland with naturally occurring weed populations, or applications were made to bare ground with naturally occurring weed populations. The target plants were treated with post emergence foliar applications after they had reached at least 3-4 leaves or at least 2-5 inches in height. All treatments were applied using a randomized complete block trial design, with 3-4 replications per treatment.
(§3) Treatments consisted of aminocyclopyrachlor in acid form and triclopyr-butotyl, each in water and applied alone or in combination. Spray solutions were prepared using an appropriate amount of dilution to form a 2 liter (L) aqueous spray solution with active ingredients in single and two way combinations. Formulated compounds were applied to the plant material with a backpack sprayer equipped with 8003 or Turbojet nozzles calibrated to deliver 187 L/ha to 400 L/ha at a spray height of 18-20 inches (43-50 centimeters (cm)) above average plant canopy.
(§4) The treated plants were buckhorn plantain (Plantago lanceolata, PLALA), calvary clover (Medicago arabica, MEDAB), shepherd's purse (Capsella bursa-pastoris, CAPBP), common fiddleneck (Amsinckia intermedia, AMSIN), redmaids (Calandrinia ciliata, CLNCM), and broomweed (Sida acuta, SIDAC). The treated plots and control plots were rated blind at various intervals after application. Ratings were based on a scale of 0-100%, as discussed above, wherein 0% indicates no damage to the undesired vegetation and 100% indicates complete destruction of the undesired vegetation
(§5) Colby's equation was used to determine the herbicidal effects expected from the mixtures, as described above. The results were measured at 7 days, 14 days, 17 days, 24 days, 27 days, 60 days, and 72 days after the first application of the compositions. […] The herbicide tank mix combinations tested, application rates and ratios employed, plant species tested, and results are given below.

[2] = system: buckhorn plantain (Plantago lanceolata, PLALA)
Description: as §1, §2, §3, §4, §5

[3] = system: calvary clover (Medicago arabica, MEDAB)
Description: as §1, §2, §3, §4, §5

[4] = system: common fiddleneck (Amsinckia intermedia, AMSIN)
Description: as §1, §2, §3, §4, §5

[5] = system: redmaids (Calandrinia ciliata, CLNCM); settings: 17 DAYS
Description: as §1, §2, §3, §4, §5

[6] = system: shepherd's purse (Capsella bursa-pastoris, CAPBP)
Description: as §1, §2, §3, §4, §5

## Nc1nc(C2CC2)nc(C(=O)O)c1Cl [Aminocyclopyrachlor, 6-amino-5-chloro-2-cyclopropylpyrimidine-4-carboxylic acid]
[1]; 60 DAYS, 150 g ae/ha alone
  Mean % weed control: 53%
[1]; 72 DAYS, 150 g ae/ha alone
  Mean % weed control: 60%
[2]; 14 DAYS, 18 g ae/ha alone
  Mean % weed control: 37.5%
[2]; 14 DAYS, 35 g ae/ha alone
  Mean % weed control: 40%
[2]; 27 DAYS, 18 g ae/ha alone
  Mean % weed control: 22.5%
[2]; 27 DAYS, 35 g ae/ha alone (aminocyclopyrachlor)
  Mean % weed control: 35%
[3]; 7 DAYS, 18 g ae/ha alone
  Mean % weed control: 20%
[3]; 14 DAYS, 18 g ae/ha alone
  Mean % weed control: 47.5%
[3]; 14 DAYS, 35 g ae/ha alone
  Mean % weed control: 47.5%
[3]; 27 DAYS, 18 g ae/ha alone
  Mean % weed control: 27.5%
[4]; 17 DAYS, 35 g ae/ha alone
  Mean % weed control: 0%
[4]; 24 DAYS, 35 g ae/ha alone
  Mean % weed control: 0%
[5]; 35 g ae/ha alone
  Mean % weed control: 16.67%
[6]; 17 DAYS, 18 g ae/ha alone
  Mean % weed control: 23.33%
[6]; 24 DAYS, 18 g ae/ha alone
  Mean % weed control: 20%

## CCCCOCCOC(=O)COc1nc(Cl)c(Cl)cc1Cl [Triclopyr-butotyl]
[1]; 60 DAYS, 360 g ae/ha alone
  Mean % weed control: 2%
[1]; 72 DAYS, 360 g ae/ha alone
  Mean % weed control: 10%
[2]; 14 DAYS, 70 g ae/ha alone
  Mean % weed control: 7.5%
[2]; 27 DAYS, 35 g ae/ha alone (triclopyr-butotyl)
  Mean % weed control: 2.5%
[2]; 27 DAYS, 70 g ae/ha alone
  Mean % weed control: 3.75%
[3]; 7 DAYS, 70 g ae/ha alone
  Mean % weed control: 13.75%
[3]; 14 DAYS, 70 g ae/ha alone
  Mean % weed control: 10%
[3]; 27 DAYS, 35 g ae/ha alone
  Mean % weed control: 2.5%
[3]; 27 DAYS, 70 g ae/ha alone
  Mean % weed control: 5%
[4]; 17 DAYS, 70 g ae/ha alone
  Mean % weed control: 0%
[4]; 24 DAYS, 70 g ae/ha alone
  Mean % weed control: 0%
[5]; 70 g ae/ha alone
  Mean % weed control: 20%
[5]; 140 g ae/ha alone
  Mean % weed control: 23.33%
[6]; 17 DAYS, 35 g ae/ha alone
  Mean % weed control: 40%
[6]; 17 DAYS, 70 g ae/ha alone
  Mean % weed control: 46.67%
[6]; 24 DAYS, 35 g ae/ha alone
  Mean % weed control: 40%
[6]; 24 DAYS, 70 g ae/ha alone
  Mean % weed control: 58.33%
